This passage reports Ki and IC50 results from PMC10978157, “Environmental exposure to glyphosate does not inhibit human acetylcholinesterase and butyrylcholinesterase” (Archives of Industrial Hygiene and Toxicology, 2024).

Broadly, the Ki is the equilibrium dissociation constant of an inhibitor or competing ligand from its target. In general, IC50 refers to the concentration that inhibits the measured activity by half.

Holding throughout (format): biochemical
Assay [1] deals with T1, human BChE isolated from plasma (Homo sapiens, UniProt P06276).
T1 construct: native, purified from human plasma, gift from F. Nachon
T1 sequence (P06276 29-602): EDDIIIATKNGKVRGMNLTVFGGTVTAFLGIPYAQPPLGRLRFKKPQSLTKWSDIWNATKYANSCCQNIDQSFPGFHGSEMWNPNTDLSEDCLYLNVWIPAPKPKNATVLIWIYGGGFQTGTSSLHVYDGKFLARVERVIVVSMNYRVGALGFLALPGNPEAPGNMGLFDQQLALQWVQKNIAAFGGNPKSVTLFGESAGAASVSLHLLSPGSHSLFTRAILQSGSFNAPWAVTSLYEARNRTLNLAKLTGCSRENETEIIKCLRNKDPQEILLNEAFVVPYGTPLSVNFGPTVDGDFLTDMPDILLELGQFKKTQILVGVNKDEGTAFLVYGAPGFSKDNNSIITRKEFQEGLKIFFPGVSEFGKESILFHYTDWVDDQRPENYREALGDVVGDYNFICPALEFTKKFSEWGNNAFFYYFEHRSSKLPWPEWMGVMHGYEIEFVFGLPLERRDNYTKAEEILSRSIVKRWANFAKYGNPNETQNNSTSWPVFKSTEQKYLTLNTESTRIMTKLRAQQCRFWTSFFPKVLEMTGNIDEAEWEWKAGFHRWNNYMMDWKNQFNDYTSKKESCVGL
Nature of the assay: Ellman assay. An excerpt: Ellman assay on human BChE isolated from plasma
For orientation: DTNB colorimetry detects thiols as they appear.

The target in assay [2] is T1, human BChE isolated from plasma. As to the kind of experiment: Ellman assay; joint IC50 over all ATCh concentrations. Conditions: read-out: Approx. IC50. An excerpt: Ellman assay; joint IC50 over all ATCh concentrations on human BChE isolated from plasma
In assay [3] the target is T2, human recombinant AChE (Homo sapiens, UniProt P22303).
T2 construct: recombinant human AChE, gift from F. Nachon
T2 sequence (P22303 32-614): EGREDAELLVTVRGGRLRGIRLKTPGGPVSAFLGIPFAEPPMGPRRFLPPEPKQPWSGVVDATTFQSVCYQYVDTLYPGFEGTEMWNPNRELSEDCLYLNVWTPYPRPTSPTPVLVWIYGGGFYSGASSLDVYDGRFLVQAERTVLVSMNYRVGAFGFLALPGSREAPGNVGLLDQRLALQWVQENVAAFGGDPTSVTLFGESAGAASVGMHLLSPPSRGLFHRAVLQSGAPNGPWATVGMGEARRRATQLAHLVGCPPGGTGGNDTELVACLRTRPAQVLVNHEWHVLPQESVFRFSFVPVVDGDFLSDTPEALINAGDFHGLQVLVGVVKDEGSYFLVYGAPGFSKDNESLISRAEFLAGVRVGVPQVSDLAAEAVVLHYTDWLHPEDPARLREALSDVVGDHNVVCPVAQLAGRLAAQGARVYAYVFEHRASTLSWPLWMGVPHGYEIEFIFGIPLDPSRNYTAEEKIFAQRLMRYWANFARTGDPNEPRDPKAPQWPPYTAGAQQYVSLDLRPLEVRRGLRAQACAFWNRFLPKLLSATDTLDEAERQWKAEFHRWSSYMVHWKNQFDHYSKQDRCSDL
The assay is described as above. Conditions: read-out: Approx. IC50. An excerpt:
Ellman assay; joint IC50 over all ATCh concentrations on human recombinant AChE

For assay [4], the target named is T2, human recombinant AChE. Nature of the assay: Ellman assay. The text has this:
Ellman assay on human recombinant AChE

Turning to `O=C(O)CNCP(=O)(O)O` [glyphosate, N-(phosphonomethyl)glycine], the Ki in assay [1] is 19.3 ± 1.8 mM; at human recombinant AChE [4], 28.4 ± 2.7 mM. Besides, the figures for the IC50 (in assay [2]; on human recombinant AChE [3]) were ~20 mM and ~25.1 mM, respectively.
